# Patent US20240254129A1, “HETEROCYCLIC COMPOUNDS AND USES THEREOF” (Kumquat Biosciences Inc., priority 2021, published 2024)
# Where two headings read alike, the source gives them in different places.
# Legend:
# wildtype Kras / hSOS1 = target: T1, wildtype Kras / hSOS1 (Homo sapiens, UniProt P01116); test: HTRF assay, wildtype Kras / SOS1 interaction; assay type: binding; conditions: read-out: IC50 against wildtype Kras
# T1 construct: made in house; host or cells: E. coli BL21 (DE3)
# How it was run: (§1)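 Compounds tested in duplicate from 10 μM down to 0.01 μM, incubated about 10 min or longer with GST-K-Ras/anti-GST-Eu and His-hSOS1/anti-6His-XL665 in ~5 mM HEPES pH 7.4 buffer with ~150 mM NaCl, DTT, BSA and Igepal. IC50 derived from 665/620 nm emission ratio.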
# [1] = target: GST-tagged K-Ras mutant / His-tagged hSOS1 (Homo sapiens, UniProt P01116); test: HTRF assay, K-Ras mutant / SOS1 interaction; assay type: binding; conditions: read-out: IC50 against mutant Kras
# How it was run: as §1
# [2] = compound nos. 102-196, general methodology of example 5
# [3] = compound nos. 201-213, general methodology of example 5
# T1 sequence (P01116 1-188 isoform P01116-2): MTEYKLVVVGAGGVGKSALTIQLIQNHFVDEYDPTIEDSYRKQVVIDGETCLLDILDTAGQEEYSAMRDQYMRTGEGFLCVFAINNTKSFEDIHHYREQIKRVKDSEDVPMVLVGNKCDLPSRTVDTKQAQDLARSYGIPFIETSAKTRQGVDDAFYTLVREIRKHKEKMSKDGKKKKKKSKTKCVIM
# Sequence of GST-tagged K-Ras mutant / His-tagged hSOS1 (P01116 whole entry G12D, form open): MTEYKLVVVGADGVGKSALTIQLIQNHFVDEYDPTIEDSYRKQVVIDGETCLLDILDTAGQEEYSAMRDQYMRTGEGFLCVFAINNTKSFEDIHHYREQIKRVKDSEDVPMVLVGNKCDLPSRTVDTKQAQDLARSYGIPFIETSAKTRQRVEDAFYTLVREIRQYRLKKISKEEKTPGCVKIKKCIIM
IC50 (wildtype Kras / hSOS1; compound nos. 401-703) [nM],IC50 ([1]; compound nos. 401-703) [nM],SMILES,also measured
,,"CN1CCC[C@H]1COc1nc(N2CCNCC(F)(F)C2)c2cc(Cl)c(-c3cccc4nc(N)oc34)c(F)c2n1 [Compound 166, 7-(6-chloro-4-(6,6-difluoro-1,4-diazepan-1-yl)-8-fluoro-2-(((S)-1-methylpyrrolidin-2-yl)methoxy)quinazolin-7-yl)benzo[d]oxazol-2-amine]","IC50 (wildtype Kras / hSOS1; [2]): > 500 nM; IC50 [1, 2]: > 500 nM"
,,"Cc1cc(N)nc(-c2c(Cl)cc3c(N4CCNCC(F)(F)C4)nc(OC[C@@H]4CCCN4C)nc3c2F)c1 [Compound 189, (S)-6-(6-chloro-4-(6,6-difluoro-1,4-diazepan-1-yl)-8-fluoro-2-((1-methyl-pyrrolidin-2-yl)methoxy)-quinazolin-7-yl)-4-methyl-pyridin-2-amine]","IC50 (wildtype Kras / hSOS1; [2]): > 500 nM; IC50 [1, 2]: > 500 nM"
,,"Nc1nc2c(-c3c(Cl)cc4c(N5CCOCC(F)(F)C5)nc(OCC56CCCN5CCC6)nc4c3F)ccc(F)c2s1 [Compound 115, 4-(6-chloro-4-(6,6-difluoro-1,4-oxazepan-4-yl)-8-fluoro-2-((tetrahydro-1H-pyrrol-izin-7a(5H)-yl)methoxy)-quinazolin-7-yl)-7-fluoro-benzo[d]thiazol-2-amine]","IC50 (wildtype Kras / hSOS1; [2]): < 500 nM; IC50 [1, 2]: < 500 nM"
> 500,< 500,"CN1CCC[C@H]1COc1nc(N2CCC(F)C(F)CC2)c2cc(Cl)c(-c3cccc4sc(N)nc34)c(F)c2n1 (stereo partly drawn) [Compound 642, 4-(6-chloro-4-(4,5-difluoro-azepan-1-yl)-8-fluoro-2-(((S)-1-methylpyrrolidin-2-yl)methoxy)quinazolin-7-yl)-benzo[d]thiazol-2-amine]",
> 500,< 500,"Nc1nc2c(-c3c(Cl)cc4c(N5CCNCC(F)(F)C5)nc(OCCCN5CCCC5)nc4c3F)ccc(F)c2s1 [Compound 555, 4-(6-chloro-4-(6,6-difluoro-1,4-diazepan-1-yl)-8-fluoro-2-(3-(pyrrolidin-1-yl)-propoxy)quinazolin-7-yl)-7-fluorobenzo[d]thiazol-2-amine]",
,,"Nc1nc2c(-c3c(Cl)cc4c(N5CCOCC(O)C5)nc(OCC56CCCN5CCC6)nc4c3F)cccc2s1 (centres unmarked) [Compound 156, 4-(7-(2-aminobenzo[d]-thiazol-4-yl)-6-chloro-8-fluoro-2-((tetrahydro-1H-pyrrolizin-7a(5H)-yl)-methoxy)quinazolin-4-yl)-1,4-oxazepan-6-ol]","IC50 (wildtype Kras / hSOS1; [2]): < 500 nM; IC50 [1, 2]: < 500 nM"
< 500,< 500,"N#Cc1c(N)sc2c(F)ccc(-c3c(Cl)cc4c(N5CC6CCC(C5)N6CC5CC5)nc(OC[C@@]56CCCN5C[C@H](F)C6)nc4c3F)c12 [Compound 500, 2-amino-4-(6-chloro-4-((1R,5S)-8-(cyclopropyl-methyl)-3,8-diazabicyclo-[3.2.1]octan-3-yl)-8-fluoro-2-(((2R,7aS)-2-fluorotetra-hydro-1H-pyrrolizin-7a(5H)-yl)methoxy)quin-azolin-7-yl)-7-fluorobenzo-[b]thiophene-3-carbonitrile]",
> 500,< 500,"Oc1cc(-c2c(F)cc3c(N4CC5CCC(C4)N5)nc(OCC45CCCN4CCC5)nc3c2F)c2ccccc2c1 [Compound 669, 4-(4-(3,8-diazabicyclo-[3.2.1]octan-3-yl)-6,8-difluoro-2-((tetrahydro-1H-pyrrolizin-7a(5H)-yl)methoxy)quinazolin-7-yl)naphthalen-2-ol]",
> 500,< 500,"N#Cc1c(N)sc2c(F)ccc(-c3c(Cl)cc4c(N5CCCNCC5)nc(OC[C@@]56CCCN5C[C@H](F)C6)nc4c3F)c12 [Compound 557, 2-amino-4-(6-chloro-4-(1,4-diazepan-1-yl)-8-fluoro-2-(((2R,7aS)-2-fluorotetra-hydro-1H-pyrrolizin-7a(5H)-yl)methoxy)quinazolin-7-yl)-7-fluorobenzo[b]thio-phene-3-carbonitrile]",
> 500,< 500,"N#Cc1c(N)sc2c(F)ccc(-c3c(Cl)cc4c(N5CC6CCC(C5)O6)nc(OC[C@@]56CCCN5C[C@H](F)C6)nc4c3F)c12 [Compound 583, 4-(4-(8-oxa-3-azabicyclo-[3.2.1]-octan-3-yl)-6-chloro-8-fluoro-2-(((2R,7aS)-2-fluorotetrahydro-1H-pyrrol-izin-7a(5H)-yl)methoxy)-quinazolin-7-yl)-2-amino-7-fluorobenzo[b]thiophene-3-carbonitrile]",
> 500,< 500,"Nc1nc2c(-c3c(Cl)cc4c(N5CC6COCC(C5)N6)nc(OC[C@@]56CCCN5C[C@H](F)C6)nc4c3F)ccc(F)c2s1 [Compound 547, 4-(4-(3-oxa-7,9-diaza-bicyclo[3.3.1]nonan-7-yl)-6-chloro-8-fluoro-2-(((2R,7aS)-2-fluorotetra-hydro-1H-pyrrolizin-7a(5H)-yl)methoxy)quinazolin-7-yl)-7-fluorobenzo[d]thiazol-2-amine]",
> 500,> 500,"Nc1cccc(-c2ccccc2-c2c(Cl)cc3c(N4CCCCCC4)nc(OCC45CCCN4CCC5)nc3c2F)c1 [Compound 666, 2′-(4-(azepan-1-yl)-6-chloro-8-fluoro-2-((tetrahydro-1H-pyrrolizin-7a(5H)-yl)meth-oxy)quinazolin-7-yl)-[1,1′-biphenyl]-3-amine]",
< 500,< 500,"Nc1nc2c(-c3c(Cl)cc4c(N5C[C@H]6CC[C@@H](C5)[C@@H]6N)nc(OCC56CCCN5CCC6)nc4c3F)ccc(F)c2s1 [Compound 413, 4-(4-((1R,5S,8s)-8-amino-3-azabicyclo[3.2.1]octan-3-yl)-6-chloro-8-fluoro-2-((tetra-hydro-1H-pyrrolizin-7a(5H)-yl)methoxy)quinazolin-7-yl)-7-fluorobenzo[d]thiazol-2-amine]",
> 500,> 500,"OC1Cc2ccccc2N(c2ccc3c(N4CC5CCC(C4)N5)nc(OCC45CCCN4CCC5)nc3c2F)C1 (centres unmarked) [Compound 538, 1-(4-(3,8-diazabicyclo-[3.2.1]octan-3-yl)-8-fluoro-2-((tetrahydro-1H-pyrrol-izin-7a(5H)-yl)methoxy)-quinazolin-7-yl)-1,2,3,4-tetrahydro-quinolin-3-ol]",
> 500,> 500,"Cc1cc(N)nc(-c2ccc3c(N4CC5CCC(C4)N5)nc(OC[C@@]45CCCN4C[C@H](F)C5)nc3c2F)c1C1CC1 [Compound 648, 6-(4-(3,8-diazabicyclo-[3.2.1]octan-3-yl)-8-fluoro-2-(((2R,7aS)-2-fluorotetra-hydro-1H-pyrrolizin-7a(5H)-yl)methoxy)quinazolin-7-yl)-5-cyclopropyl-4-methyl-pyridin-2-amine]",
,,"CN1CCC[C@H]1COc1nc(N2CCNCC(F)(F)C2)c2cc(Cl)c(-c3cccc4sc(O)nc34)c(F)c2n1 [Compound 177, 4-(6-chloro-4-(6,6-difluoro-1,4-diazepan-1-yl)-8-fluoro-2-(((S)-1-methylpyrrolidin-2-yl)methoxy)quinazolin-7-yl)benzo[d]thiazol-2-ol]","IC50 (wildtype Kras / hSOS1; [2]): > 500 nM; IC50 [1, 2]: > 500 nM"
< 500,> 500,"Nc1ccc(-c2ccccc2-c2c(Cl)cc3c(N4CCCCCC4)nc(OCC45CCCN4CCC5)nc3c2F)cc1 [Compound 450, 2′-(4-(azepan-1-yl)-6-chloro-8-fluoro-2-((tetrahydro-1H-pyrrolizin-7a(5H)-yl)meth-oxy)quinazolin-7-yl)-[1,1′-biphenyl]-4-amine]",
,,"Nc1nc2c(-c3ccc4c(N5CC6CCC(C5)N6)nc(OC[C@@]56CCCN5C[C@H](F)C6)nc4c3F)ccc(F)c2s1 [Compound 207, 4-(4-((1R,5S)-3,8-diaza-bicyclo[3.2.1]octan-3-yl)-8-fluoro-2-(((2R,7aS)-2-fluoro-tetrahydro-1H-pyrrolizin-7a(5H)-yl)methoxy)quin-azolin-7-yl)-7-fluorobenzo-[d]thiazol-2-amine]","IC50 (wildtype Kras / hSOS1; [3]): < 1500 nM; IC50 [1, 3]: < 1500 nM"
< 500,> 500,"Nc1cccc(-c2c(Cl)cc3c(N4CC5CCC(C4)N5)nc(OCC45CCCN4CCC5)nc3c2F)c1F [Compound 440, 3-(4-(3,8-diazabicyclo-[3.2.1]-octan-3-yl)-6-chloro-8-fluoro-2-((tetrahydro-1H-pyrrolizin-7a(5H)-yl)meth-oxy)quinazolin-7-yl)-2-fluoroaniline]",
> 500,< 500,"Nc1nc2c(-c3c(Cl)cc4c(N5CC6CCC(C5)N6)nc(OC[C@@]56CCCN5C[C@H](F)C6)nc4c3F)cc(Cl)cc2s1 [Compound 601, 4-(4-(3,8-diazabicyclo-[3.2.1]octan-3-yl)-6-chloro-8-fluoro-2-(((2R,7aS)-2-fluorotetrahydro-1H-pyrrol-izin-7a(5H)-yl)methoxy)-quinazolin-7-yl)-6-chloro-benzo[d]thiazol-2-amine]",
< 500,< 500,"Cc1ccc2sc(N)nc2c1-c1c(Cl)cc2c(N3CC4CCC(C3)N4)nc(OCC34CCCN3CCC4)nc2c1F [Compound 468, 4-(4-(3,8-diazabicyclo-[3.2.1]octan-3-yl)-6-chloro-8-fluoro-2-((tetrahydro-1H-pyrrolizin-7a(5H)-yl)meth-oxy)quinazolin-7-yl)-5-methylbenzo[d]thiazol-2-amine]",
> 500,> 500,"Nc1nc2c(-c3ccc4c(N5CC6CCC(C5)N6)nc(OC[C@@]56CCCN5C[C@H](F)C6)nc4c3F)cccc2o1 [Compound 634, 4-(4-(3,8-diazabicyclo-[3.2.1]octan-3-yl)-8-fluoro-2-(((2R,7aS)-2-fluorotetra-hydro-1H-pyrrolizin-7a(5H)-yl)methoxy)quinazolin-7-yl)benzo[d]oxazol-2-amine]",
